Literature values, collected in patent publication US20240050408A1, “USE OF MGLUR5 ANTAGONISTS FOR TREATING AMPHETAMINE ADDICTION” (NOVARTIS AG, priority 2020, published 2024).

Experiments:
[1] = tested on: methamphetamine conditioned place preference; conditions: rats; Herrold et al. 2013; cited from earlier work
[2] = tested on: methamphetamine self-administration behavior; conditions: rat model; Gass et al. 2009; cited from earlier work

Compound: Cc1cccc(C#Cc2ccccc2)n1 [MPEP, 2-Methyl-6-(phenylethynyl)-pyridine]
- maintenance of the expression of methamphetamine conditioned place preference [1]: inhibited

Compound: Cc1nc(C#Cc2cccnc2)cs1 [MTEP, 3-[(2-methyl-1,3-thiazol-4-yl)ethynyl]pyridine]
- cue- and drug-induced reinstatement of methamphetamine-seeking behavior [2]: dose dependently prevented
- cue-induced reinstatement of food-seeking behavior [2]: did not alter
- methamphetamine self-administration behavior [2]: dose dependently reduced
- overall responding for food [2]: without altering
- maintenance of the expression of methamphetamine conditioned place preference [1]: inhibited
